{"source": "ChEMBL document CHEMBL1129104", "about": "“Synthesis and evaluation of 2-(biphenylmethyl)glutaric acid amide derivatives as neutral endopeptidase inhibitors” (Bioorg Med Chem Lett, 1996)"}
{"molecular_target": "Neprilysin (Homo sapiens, UniProt P08473)", "sequence (P08473 whole entry)": "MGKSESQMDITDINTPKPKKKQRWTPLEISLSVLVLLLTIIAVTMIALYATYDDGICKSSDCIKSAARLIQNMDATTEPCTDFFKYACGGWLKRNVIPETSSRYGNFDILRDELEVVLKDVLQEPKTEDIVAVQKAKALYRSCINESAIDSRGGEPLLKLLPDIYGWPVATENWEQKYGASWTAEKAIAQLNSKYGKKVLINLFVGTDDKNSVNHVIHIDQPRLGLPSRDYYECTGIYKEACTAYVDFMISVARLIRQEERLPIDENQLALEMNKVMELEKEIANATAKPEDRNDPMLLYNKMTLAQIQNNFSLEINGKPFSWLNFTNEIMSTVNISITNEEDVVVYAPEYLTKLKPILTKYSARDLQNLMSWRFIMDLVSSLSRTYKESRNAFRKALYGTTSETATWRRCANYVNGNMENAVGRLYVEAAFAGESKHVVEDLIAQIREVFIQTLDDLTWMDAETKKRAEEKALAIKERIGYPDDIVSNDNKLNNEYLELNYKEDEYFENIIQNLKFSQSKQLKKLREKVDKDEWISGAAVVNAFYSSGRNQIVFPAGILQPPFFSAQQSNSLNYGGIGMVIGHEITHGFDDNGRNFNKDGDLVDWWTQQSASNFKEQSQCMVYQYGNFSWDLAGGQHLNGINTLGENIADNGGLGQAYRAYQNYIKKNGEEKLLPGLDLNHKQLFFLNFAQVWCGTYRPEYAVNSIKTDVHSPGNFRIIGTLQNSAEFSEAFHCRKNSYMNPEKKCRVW", "assay": "In vitro inhibition of Neutral Endopeptidase", "units": {"IC50": "nM"}}
{"smiles": "O=C(O)Cc1csc(NC(=O)[C@H](Cc2ccc(-c3ccccc3)cc2)C[C@H](COc2ccccc2)C(=O)O)n1", "IC50": 3.3}
{"smiles": "CC(C[C@@H](Cc1ccc(-c2ccccc2)cc1)C(=O)Nc1nc(CC(=O)O)cs1)C(=O)O", "note": "(some centres not stated)", "IC50": 58}
{"smiles": "O=C(O)CNC(=O)[C@H](Cc1ccc(-c2ccccc2)cc1)C[C@@H](COc1ccccc1)C(=O)O", "IC50": 3.2}
{"smiles": "O=C(O)C(COc1ccccc1)C[C@@H](Cc1ccc(-c2ccccc2)cc1)C(=O)Nc1nnn[nH]1", "note": "(some centres not stated)", "IC50": 7.4}
{"smiles": "O=C(O)Cc1nnc(NC(=O)[C@H](Cc2ccc(-c3ccccc3)cc2)CC(COc2ccccc2)C(=O)O)s1", "note": "(some centres not stated)", "IC50": 92}
{"smiles": "CCCCC(C[C@@H](Cc1ccc(-c2ccccc2)cc1)C(=O)Nc1nc(CC(=O)O)cs1)C(=O)O", "note": "(single isomer, unassigned; isomer A)", "IC50": 10}
{"smiles": "O=C(O)CNC(=O)[C@H](Cc1ccc(-c2ccccc2)cc1)C[C@H](COc1ccccc1)C(=O)O", "IC50": 5.9}
{"smiles": "COCCOCC(CC1(C(=O)N[C@H]2CC[C@@H](C(=O)O)CC2)CCCC1)C(=O)Oc1ccc2c(c1)CCC2", "note": "(some centres not stated)", "IC50": 65}
{"smiles": "O=C(O)CC[C@@H](Cc1ccc(-c2ccccc2)cc1)C(=O)Nc1nc(CC(=O)O)cs1", "IC50": 122}
{"smiles": "O=C(O)C(COc1ccccc1)C[C@@H](Cc1ccc(-c2ccccc2)cc1)C(=O)NCc1nn[nH]n1", "note": "(some centres not stated)", "IC50": 19}
{"smiles": "O=C(O)Cc1csc(NC(=O)[C@H](Cc2ccc(-c3ccccc3)cc2)C[C@@H](COc2ccccc2)C(=O)O)n1", "IC50": 0.69}
{"smiles": "CCCCC(C[C@@H](Cc1ccc(-c2ccccc2)cc1)C(=O)Nc1nc(CC(=O)O)cs1)C(=O)O", "note": "(stereo in doubt)", "IC50": 9.8}
